Patent publication US20250179047A1, “5-[7-(3,4-DIHYDRO-1H-ISOQUINOLINE-2-CARBONYL)-1,2,3,4 TETRAHYDROISOQUINOLIN-6-YL]-1H-PYRROLE-3-CARBOXAMIDE DERIVATIVES, PHARMACEUTICAL COMPOSITIONS CONTAINING THEM AND THEIR USES AS PRO-APOPTOTIC AGENTS” (LES LABORATOIRES SERVIER, priority 2022, published 2025)

How the values were obtained:
KMS-12-PE Bcl-2 WT = test: In vitro cytotoxicity CellTiter-Glo 48 h, KMS-12-PE Bcl-2 WT; type: cell-based; settings: Homo sapiens, KMS-12-PE, C50 = concentration needed to reach 50% of the cellular viability
In short: (§1)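 Potency is expressed as C50, the compound concentration at which viability of engineered KMS-12-PE cells (Bcl-2 wild type or G101V) falls to 50%, determined from CellTiter-Glo luminescence after 48 h of treatment over 11 concentrations.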

BCL2 D103Y = BCL2 D103Y (Homo sapiens, UniProt P10415, D103Y); test: TR-FRET competitive binding assay, BCL2 D103Y; settings: Ki determined from IC50, read-out: TR_FRET EKI_Bcl2 D103Y
In short: (§2)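 Terbium-labelled N-terminal Halo-fusion BCL2 or BCLXL (E. coli), 0.5 nM, competed against fluorescein-labelled PUMA peptide (2 or 20 nM) for 2 h at 23° C in 50 mM Hepes pH 7.5, 150 mM NaCl, 5% DMSO. TR-FRET 520/495 nm ratio gave IC50 by four-parameter fit; Ki derived from IC50.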

BCL2 F104I = BCL2 F104I (Homo sapiens, UniProt P10415, F104I); test: TR-FRET competitive binding assay, BCL2 F104I; settings: Ki determined from IC50, read-out: TR_FRET EKI_Bcl2 F104I
In short: as §2

BCLXL WT = BCLXL WT (Homo sapiens (Human), UniProt Q07817); test: TR-FRET competitive binding assay, BCLXL WT; settings: for Ki: BCLXL WT, Ki determined from IC50, read-out: TR_FRET EKI BclxL; for TR_FRET EKI BCLxL/WT selectivty ratio: ratio Ki BCLxL / Ki BCL2 WT
In short: as §2

BCL2 D111A = BCL2 D111A (Homo sapiens, UniProt P10415, D111A); test: TR-FRET competitive binding assay, BCL2 D111A; settings: Ki determined from IC50, read-out: TR_FRET EKI_Bcl2 D111A
In short: as §2

KMS-12-PE Bcl-2 G101V = test: In vitro cytotoxicity CellTiter-Glo 48 h, KMS-12-PE Bcl-2 G101V; type: cell-based; settings: for Ratio (G101V/WT): C50 KMS-12-PE Bcl-2 G101V over C50 KMS-12-PE Bcl-2 WT; for IC50: Homo sapiens, KMS-12-PE, 48 h, CellTiter-Glo, C50 = concentration needed to reach 50% of the cellular viability
In short: as §1

BCL2 G101V [1] = test: TR-FRET competitive binding assay, BCL2 G101V; design: species or system human; settings: ratio Ki BCL2 G101V / Ki BCL2 WT
In short: as §2

BCL2 G101V [2] = target: BCL2 G101V (Homo sapiens, UniProt P10415, G101V); test: TR-FRET competitive binding assay, BCL2 G101V; settings: BCL2 G101V; Ki determined from IC50; read-out: TR_FRET EKI_Bcl2 G101V
In short: as §2

BCL2 WT = BCL2 WT (Homo sapiens (Human), UniProt P10415); test: TR-FRET competitive binding assay, BCL2 WT; settings: Ki determined from IC50, read-out: TR_FRET EKI_Bcl2 WT
In short: as §2

Sequence of BCLXL WT (Q07817 other isoform, or with tags, fused parts or gaps): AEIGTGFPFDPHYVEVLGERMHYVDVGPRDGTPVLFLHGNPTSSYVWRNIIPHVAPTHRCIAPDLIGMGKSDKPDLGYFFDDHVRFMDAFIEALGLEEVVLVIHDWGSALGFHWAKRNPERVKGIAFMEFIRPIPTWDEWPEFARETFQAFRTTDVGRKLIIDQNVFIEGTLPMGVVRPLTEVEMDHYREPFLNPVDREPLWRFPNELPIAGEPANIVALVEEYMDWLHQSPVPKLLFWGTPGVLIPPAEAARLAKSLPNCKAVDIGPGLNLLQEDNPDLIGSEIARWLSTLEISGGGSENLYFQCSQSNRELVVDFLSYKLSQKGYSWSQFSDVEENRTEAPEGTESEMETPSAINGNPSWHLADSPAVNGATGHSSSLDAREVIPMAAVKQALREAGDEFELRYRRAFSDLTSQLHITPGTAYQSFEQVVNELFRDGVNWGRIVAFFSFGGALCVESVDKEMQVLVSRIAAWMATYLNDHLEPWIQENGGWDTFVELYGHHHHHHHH

| SMILES | Ki (BCL2 D103Y) [nM] | Ki (BCL2 F104I) [nM] | Ki (BCLXL WT) [nM] | TR_FRET EKI BCLxL/WT selectivty ratio (BCLXL WT) | Ki (BCL2 D111A) [nM] | TR_FRET EKI G101V/WT selectivty ratio (BCL2 G101V [1]) | Ki (BCL2 G101V [2]) [nM] | Ki (BCL2 WT) [nM] | IC50 (KMS-12-PE Bcl-2 WT) [µM] | Ratio (G101V/WT) (KMS-12-PE Bcl-2 G101V) | IC50 (KMS-12-PE Bcl-2 G101V) [µM] |
| --- | --- | --- | --- | --- | --- | --- | --- | --- | --- | --- | --- |
| Cc1c(N(C(=O)c2cc(-c3cc4c(cc3C(=O)N3Cc5ccccc5C[C@H]3CN3CCCCC3)CN(C(=O)Cc3ccc(O[C@H]5CCN(CCF)C5)cc3F)CC4)n(C)c2C)c2ccc(O)cc2)cc(C#N)n1C [Example 89, N-(5-cyano-1,2-dimethylpyrrol-3-yl)-5-{2-[2-(2-fluoro-4-{[(3S)-1-(2-fluoroethyl)pyrrolidin-3-yl]oxy}phenyl)acetyl]-7-{[(3S)-3-(piperidin-1-ylmethyl)-3,4-dihydro-1H-isoquinolin-2-yl]carbonyl}-3,4-dihydro-1H-isoquinolin-6-yl}-N-(4-hydroxyphenyl)-1,2-dimethylpyrrole-3-carboxamide] | 0.18 | 0.43 | 1.9 | 29.2 | 0.26 | 4.3 | 0.3 | 0.07 | 0.0069 | 5.17 | 0.0358 |
| Cc1c(N(C(=O)c2cc(-c3cc4c(cc3C(=O)N3Cc5ccccc5C[C@H]3CN3CCCCCC3)CN(C(=O)Cc3ccc(OCCN5CCOCC5)cc3F)CC4)n(C)c2C)c2ccc(O)cc2)cc(C#N)n1C [Example 96, 5-{7-[(3S)-3-[(azepan-1-yl)methyl]-1,2,3,4-tetrahydroisoquinoline-2-carbonyl]-2-(2-{2-fluoro-4-[2-(morpholin-4-yl)ethoxy]phenyl}acetyl)-1,2,3,4-tetrahydroisoquinolin-6-yl}-N-(5-cyano-1,2-dimethyl-1H-pyrrol-3-yl)-N-(4-hydroxyphenyl)-1,2-dimethyl-1H-pyrrole-3-carboxamide] | 0.2 | 0.2 | 2.4 | 37.5 | 0.2 | 5.6 | 0.4 | 0.06 | 0.0056 | 5.15 | 0.0291 |
| Cc1c(N(C(=O)c2cc(-c3cc4c(cc3C(=O)N3Cc5ccccc5C[C@H]3CN3CCCCC3)CN(C(=O)Cc3ccc(OCCN5C[C@@H](C)O[C@@H](C)C5)cc3)CC4)n(C)c2C)c2ccc(O)cc2)cc(C#N)n1C [Example 98, N-(5-cyano-1,2-dimethylpyrrol-3-yl)-5-{2-[2-(4-{2-[cis-2,6-dimethylmorpholin-4-yl]ethoxy}phenyl)acetyl]-7-{[(3S)-3-(piperidin-1-ylmethyl)-3,4-dihydro-1H-isoquinolin-2-yl]carbonyl}-3,4-dihydro-1H-isoquinolin-6-yl}-N-(4-hydroxyphenyl)-1,2-dimethylpyrrole-3-carboxamide] | 0.24 | 0.6 | 4.7 | 66.2 | 0.25 | 4.9 | 0.4 | 0.07 | 0.0087 | 4.6 | 0.0401 |

Second part, led by results:

| Ki (BCL2 D103Y) [nM] | Ki (BCL2 F104I) [nM] | Ki (BCLXL WT) [nM] | TR_FRET EKI BCLxL/WT selectivty ratio (BCLXL WT) | Ki (BCL2 D111A) [nM] | TR_FRET EKI G101V/WT selectivty ratio (BCL2 G101V [1]) | Ki (BCL2 G101V [2]) [nM] | Ki (BCL2 WT) [nM] | SMILES | IC50 (KMS-12-PE Bcl-2 WT) [µM] | Ratio (G101V/WT) (KMS-12-PE Bcl-2 G101V) | IC50 (KMS-12-PE Bcl-2 G101V) [µM] |
| --- | --- | --- | --- | --- | --- | --- | --- | --- | --- | --- | --- |
| 0.42 | 0.37 | 1.6 | 12.3 | 0.23 | 3.9 | 0.5 | 0.13 | Cc1c(N(C(=O)c2cc(-c3cc4c(cc3C(=O)N3Cc5ccccc5C[C@H]3CN3CCC(F)CC3)CN(C(=O)Cc3ccc(OCCN5CCOCC5)cc3F)CC4)n(C)c2C)c2ccc(O)cc2)cc(C#N)n1C [Example 86, N-(5-cyano-1,2-dimethyl-1H-pyrrol-3-yl)-5-[2-(2-{2-fluoro-4-[2-(morpholin-4-yl)ethoxy]phenyl}acetyl)-7-[(3S)-3-[(4-fluoropiperidin-1-yl)methyl]-1,2,3,4-tetrahydroisoquinoline-2-carbonyl]-1,2,3,4-tetrahydroisoquinolin-6-yl]-N-(4-hydroxyphenyl)-1,2-dimethyl-1H-pyrrole-3-carboxamide] | 0.0048 | 5.21 | 0.0249 |
| 0.18 | 0.16 | 1.9 | 41.3 | 0.14 | 4.3 | 0.2 | 0.05 | Cc1c(N(C(=O)c2cc(-c3cc4c(cc3C(=O)N3Cc5ccccc5C[C@H]3CN3CCCCC3)CN(C(=O)Cc3c(F)cc(OCCN5CCOCC5)cc3F)CC4)n(C)c2C)c2ccc(O)cc2)cc(C#N)n1C [Example 97, N-(5-cyano-1,2-dimethylpyrrol-3-yl)-5-[2-(2-{2,6-difluoro-4-[2-(morpholin-4-yl)ethoxy]phenyl}acetyl)-7-{[(3S)-3-(piperidin-1-ylmethyl)-3,4-dihydro-1H-isoquinolin-2-yl]carbonyl}-3,4-dihydro-1H-isoquinolin-6-yl]-N-(4-hydroxyphenyl)-1,2-dimethylpyrrole-3-carboxamide] | 0.0033 | 4.68 | 0.0158 |
